From US20080255168A1, “METHODS FOR ADMINISTERING DPD INHIBITORS IN COMBINATION WITH 5-FU AND 5-FU PRODRUGS” (ADHEREX TECHNOLOGIES, INC., priority 2004, published 2008)
Like-named read-outs stand apart in the source and are kept apart here.

Experiments:
Ward carcinoma tumors = experiment: Antitumor activity in rats bearing Ward carcinoma tumors; format: in vivo; details: for Ward carcinoma tumor response: once per week for three weeks
Experimental: Rats were implanted with Ward carcinoma tumors and were treated with one of the following regimens after their tumors grew to 3,000 mg in weight as previously described (Cao et al., Cancer Res 90:1507-1510, 1993). Rats bearing 3,000 mg of tumor mass were dosed at Day 0, Day 7, and Day 14 with the following treatments.
Group A rats received no treatment. Group B rats were intraperitoneally (ip) dosed with 1 mg/kg eniluracil (time (t)=0) followed by intravenous (iv) 5 mg/kg 5-FU at t=60. Group C rats were dosed ip with 1 mg/kg eniluracil (t=0) followed by 25 mg/kg eniluracil ip at t=55 minutes and by 5 mg/kg 5-FU iv at t=60 minutes. Animals were dosed once per week for three weeks. Eniluracil was also dosed ip at 1 mg/kg to rats in Groups B & C on Days 2 and 3 of each weekly treatment. The treatment for Group C mimicked the clinical trials where high levels of eniluracil were present when 5-FU was dosed.

HEK 293 cells [1] = experiment: Cytotoxicity of 5-FU, MTS proliferation assay; format: cell-based; details: Homo sapiens
Experimental: (§1) HEK 293 cells were initially treated with eniluracil (10 μM) for 1 hour. After a washout period ranging from 4-48 hours, cells were treated with [6-^14C]-5-FU (66 μM) for 2 hours at 37 degrees C. Controls were HEK 293 cells treated for 2 hours either with [6-^14C]-5-FU (66 μM) alone, or with eniluracil (10 μM) and [6-^14C]-5-FU (66 μM) co-administered together without preincubation. Reverse phase HPLC with radioactivity detection was utilized to quantify [6-^14C]-5-FU catabolites/anabolites present in cell lysates. In a separate set of experiments cytotoxicity of 5-FU at different eniluracil dose schedules was examined. HEK 293 cells were treated with a range of 5-FU concentrations for 72 hours at 37 degrees C. following 1 hour eniluracil (5 μM) preincubation, without eniluracil, or with eniluracil (5 μM) co-administered without preincubation. Cytotoxicity was assessed by the MTS proliferation assay and the EC50 values for 5-FU calculated.

[2] = cited from earlier work
[3] = Plasma uridine levels after eniluracil, LC-MS; format: in vivo; details: mice, eniluracil 2, 25 and 100 mg/kg, FIG. 2
Experimental: While eniluracil inhibition is known to cause an increase in uracil levels due to DPD inhibition, inhibitory effects on other enzymes that anabolize fluoropyrimidines would be expected to quantitatively alter the levels of other anabolites, such as uridine. Eniluracil was administered to mice at 2 mg/kg, 25 mg/kg and 100 mg/kg. Plasma samples were taken at 0 minutes, 15 minutes, 30 minutes, 60 minutes, 2 hours, 24 hours and 48 hours. Uridine levels were determined by LC-MS technology using known techniques and standards were used to validate the assay.

HEK 293 cells [4] = experiment: [6-14C]-FUMP anabolite formation from [6-14C]-5-FU in HEK 293 cells, reverse phase HPLC; format: cell-based; details: eniluracil 10 μM 1 hour, 48 hour washout, then [6-14C]-5-FU 66 μM 2 hours
Experimental: as §1

[5] = cited from earlier work; remark: listed apart in the source
DPD = molecular target: T1, DPD (Homo sapiens, UniProt Q12882); details: cancer patients, cited from earlier work
T1 construct: 24 hours after one dose of eniluracil, the level of DPD was only 3% of the predose level; host or cells: cancer patients
T1 sequence (Q12882 4-1025): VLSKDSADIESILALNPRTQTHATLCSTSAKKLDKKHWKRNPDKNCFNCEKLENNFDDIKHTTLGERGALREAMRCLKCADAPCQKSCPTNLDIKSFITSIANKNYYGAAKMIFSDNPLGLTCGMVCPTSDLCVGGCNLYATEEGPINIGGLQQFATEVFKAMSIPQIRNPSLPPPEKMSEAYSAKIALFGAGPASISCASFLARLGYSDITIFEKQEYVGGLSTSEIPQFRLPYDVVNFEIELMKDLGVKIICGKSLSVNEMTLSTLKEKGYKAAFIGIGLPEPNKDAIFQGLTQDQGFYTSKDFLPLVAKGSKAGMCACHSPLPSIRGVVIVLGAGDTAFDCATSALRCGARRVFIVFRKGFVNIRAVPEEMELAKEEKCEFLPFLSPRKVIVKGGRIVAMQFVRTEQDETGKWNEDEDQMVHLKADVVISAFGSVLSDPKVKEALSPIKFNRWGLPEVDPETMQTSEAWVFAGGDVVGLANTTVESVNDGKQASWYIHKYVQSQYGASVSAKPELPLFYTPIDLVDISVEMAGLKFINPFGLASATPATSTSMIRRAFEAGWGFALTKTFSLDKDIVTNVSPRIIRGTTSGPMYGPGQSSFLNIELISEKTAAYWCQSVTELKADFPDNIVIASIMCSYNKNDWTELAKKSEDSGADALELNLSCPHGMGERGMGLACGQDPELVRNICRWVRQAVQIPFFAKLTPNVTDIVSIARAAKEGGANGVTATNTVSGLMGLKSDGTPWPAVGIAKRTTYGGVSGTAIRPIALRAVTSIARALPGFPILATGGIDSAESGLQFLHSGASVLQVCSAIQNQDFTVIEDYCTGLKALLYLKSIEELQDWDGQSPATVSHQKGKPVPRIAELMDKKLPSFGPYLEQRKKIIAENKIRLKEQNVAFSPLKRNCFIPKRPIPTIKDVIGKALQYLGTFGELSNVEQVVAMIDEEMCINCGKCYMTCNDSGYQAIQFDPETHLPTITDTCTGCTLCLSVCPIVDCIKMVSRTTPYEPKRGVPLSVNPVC

[6] = system: EpiDerm™ skin model (normal, human-derived epidermal keratinocytes); experiment: EpiDerm skin model dermal irritation, MTT conversion assay (ET50); format: cell-based
Description: The EpiDerm™ skin model system (MatTek) was used to assess the potential dermal irritation of eniluracil alone or its formulation. This system consists of normal, human-derived epidermal keratinocytes (NHEK) which have been cultured to form a multilayered, highly differentiated model of the human epidermis. […] The EpiDerm™ system is mitotically and metabolically active. Markers of mature epidermis-specific differentiation such as pro-filaggrin, the K1/K10 cytokeratin pair, involucrin, and type I epidermal transglutaminase have been localized in the model. […] The duration of exposure resulting in a 50% decrease in MTT conversion in test article-treated EpiDerm™ cultures, relative to control cultures, was determined (ET50). Eniluracil was prepared and administered to the test system at the three final concentrations of 1000 μM, 500 μM, and 100 μM, and tested at three exposure times of 8, 20, and 24 hours. The DMSO solvent control was tested at exposure times of 8 and 24 hours. The negative control was tested at exposure times of 4 and 24 hours, and the positive control was tested at exposure times of 4 and 8 hours. The results of the trial, presented in Table 1, confirmed that the three doses of eniluracil were well-tolerated by the EpiDerm™ skin model at topical exposures of up to 24 hours. […] Hydrochloric acid in an amount equivalent to the sodium hydroxide was added to neutralize the ointment. The exposure time control was also exposed in duplicate for 4 and 24 hours. Table 2 below summarizes the ET50 results of the EpiDerm™ assay for the test articles and the positive control, using the negative control results to determine the relative viability.

O=c1[nH]cc(F)c(=O)[nH]1 [5-FU, 5-Fluorouracil]
Ward carcinoma tumor response (Ward carcinoma tumors; Group B: eniluracil 1 mg/kg ip t=0, 5-FU 5 mg/kg iv t=60 min): rapidly eliminated | Ward carcinoma tumor response (Ward carcinoma tumors; Group C: eniluracil 1 mg/kg ip t=0, eniluracil 25 mg/kg ip t=55 min, 5-FU 5 mg/kg iv t=60 min): decreased only slightly in size | EC50 (HEK 293 cells [1]; HEK293, 72 h, read-out: EC50 of 5-FU (mean ±SE), 72 hours, 5-FU treatment alone): 311 nM | EC50 (HEK 293 cells [1]; HEK293, read-out: EC50 of 5-FU (mean ±SE), 72 hours, after 1 hour eniluracil (5 μM) pre-treatment): 264 nM | EC50 (HEK 293 cells [1]; HEK293, read-out: EC50 of 5-FU (mean ±SE), 72 hours, eniluracil (5 μM) co-administered without preincubation): 308 nM | Half-life of 5-FU ([2]; cancer patients, after 3.7 mg/m^2 eniluracil): 4.5 h | Elimination half-life of 5-FU ([2]; cancer patients, after one dose of eniluracil): 3.5 h | Elimination half-life of 5-FU ([2]; cancer patients, without eniluracil): about 10 minutes

C#Cc1c[nH]c(=O)[nH]c1=O [eniluracil, 5-Ethynyluracil]
Plasma uridine levels [3]: increase in uridine levels | Increase in [6-14C]-FUMP formation versus [6-14C]-5-FU treatment alone (HEK 293 cells [4]): 70% | Increase in [6-14C]-FUMP formation versus eniluracil and [6-14C]-5-FU co-administration (HEK 293 cells [4]): 41% | 5-FU-associated hand-foot syndrome toxicity ([5]; Phase II and Phase III trials, oral eniluracil with 5-FU): abrogated | Toxicity in Phase I clinical trials ([5]; cancer patients, eniluracil eliminating DPD activity): without causing toxicity | Antitumor activity versus standard 5-FU regimen without eniluracil ([5]; two Phase III studies, 28-day eniluracil and 5-FU regimen, colorectal cancer): less antitumor activity | Effect of excess eniluracil on antitumor activity of 5-FU (Ward carcinoma tumors; Group C (extra 25 mg/kg eniluracil at 55 min) versus Group B): greatly diminished | Level of DPD, % of the predose level (DPD; 24 hours after one dose of eniluracil): 3% | DPD eliminated (DPD; dose of 0.74 mg/m^2 (about 1 mg total), for prolonged periods): greater than 90% | Tolerability in the EpiDerm skin model ([6]; 1000, 500 and 100 μM, topical exposures of up to 24 hours): well-tolerated | ET50 ([6]; eniluracil 100 uM): >24 h | ET50 ([6]; eniluracil 500 uM): >24 h | ET50 ([6]; eniluracil 1000 uM): >24 h | Elimination half-life for eniluracil ([2]; humans): about 3.5 hours
